For test [1], the system named is brain injury induced by middle cerebral artery occlusion (MCAO). In words: TTC staining of stroke-induced brain (MCAO model) after oral pre-administration. The test is classed as in vivo, Sprague-Dawley rats.
For test [2] the test system is unchanged. As to the kind of experiment: Behavioral test: spontaneous exercise of stroke-induced animals (MCAO model). The test is classed as in vivo, Sprague-Dawley rats.

Turning to 2′-fucosyllactose [2′-FL], the “brain damage compared to the control group not administered” value in test [1] (experimental group administered with 2'-fucosyllactose) is reported as “significantly suppressed”. Besides, the “brain damage suppression (TTC staining)” value in test [1] (oral pre-administration 0-7 weeks, 200, 300, 400 mg/kg, before MCAO) is “the longer the 2′-FL pre-administration period and the higher the dose, the better the effect on brain damage suppression”. The “exercise amount 2 days after stroke induction (D2)” value in test [2] (oral 300 mg/kg for 3 days before MCAO) is “significantly increase”; in test [2] (oral 400 mg/kg for 3 days before MCAO), “no statistically significant increase in exercise”. The “total exercise amount 2 days after stroke induction (D2)” value in test [2] (oral pre-administration for 3 days, all doses) is reported as “found to increase the total exercise amount”.

For the origin of these results see patent US20210330686A1, “COMPOSITION CONTAINING 2'-FUCOSYLLACTOSE FOR PREVENTING STROKE” (Advanced Protein Technologies Corp., priority 2018, published 2021).
